Patent US20210386367A1, “DEVICES AND SYSTEMS FOR GASTROINTESTINAL MICROBIOME DETECTION AND MANIPULATION” (Progenity, Inc., priority 2018, published 2021)
Like-named read-outs stand apart in the source and are kept apart here.

Key:
Escherichia coli = assay: Spontaneous mutation frequency and mutation prevention concentration (MPC); type: cell-based
Source text: (§1) As used herein, “spontaneous mutation frequency” refers to the rate at which mutations arise in a bacterium that can lead to resistance to develop to an antimicrobial agent. “Mutation prevention concentration” or “MPC” refers to the lowest concentration of antimicrobial agent above which the selective proliferation of resistant mutants is expected to occur only rarely.

S. pyogenes = assay: as above; type: cell-based; settings: S. pyogenes ATCC 49399
Source text: as §1

B. vulgatus = assay: as above; type: cell-based; settings: B. vulgatus ATCC 8482
Source text: as §1

S. pneumonia = assay: as above; type: cell-based; settings: S. pneumoniae ATCC 49619; for Average Count / Count 1 / Count 2 / Spontaneous Mutation Frequency: 0.5 μg/mL
Source text: as §1

[1] = system: E. coli (ATCC 25922, ATCC 35218, MMX 1312); assay: Spontaneous mutation frequency assay; type: cell-based, Escherichia coli; settings: for mutation rate / colonies on selection plates: E. coli MMX 1312; for Spontaneous Mutation Frequency: selection at 4× and 8× MIC, meropenem/ceftriaxone: isolates other than MMX 1312
Procedure: Initial values of the MIC were determined by agar dilution in accordance with guidelines from the Clinical and Laboratory Standards Institute (CLSI; (1) “Methods for Dilution Antimicrobial Susceptibility Tests for Bacteria That Grow Aerobically; Approved Standard; 11th ed.,” CLSI standard M07, 2018; (2) “Methods for Antimicrobial Susceptibility Testing of Anaerobic Bacteria; Approved Standard—Eighth Edition,” CLSI document M11-A8, 2012.).
The agar plates were prepared by mixing a ratio of 1.0 mL of concentrated drug to 49.0 mL of the appropriate molten (47° C.) agar; the drug-supplemented agar was mixed, poured into 15-by-150 mm petri dishes and allowed to solidify and dry at room temperature prior to inoculation. […] Each plate was allowed to cool at room temperature for at least 1 hr.
The isolates were streaked onto the appropriate agar medium and incubated for 20 hr (aerobes) or 48 hr (Bacteroides under anaerobic conditions). Using a sterile swab, several well-isolated colonies were removed and resuspended in sterile saline at a heavy cell density. Each plate was inoculated with 0.5 mL of the cell suspension (each test concentration was inoculated in duplicate). The target inoculum for each spontaneous mutation plate was 10^9-10 CFU. In addition, a portion of the inoculum from each isolate was enumerated by making dilutions, spreading on agar and counting colonies.
Once the inoculum was absorbed into the agar, the plates were incubated at 35° C. Aerobes were examined at 24 and 48 hr, and resulting colonies were counted. Bacteroides were incubated anaerobically for 48-72 hr in the anaerobe chamber and colonies were counted.
Colony counts from plates used to enumerate the initial inoculum density and from the resulting spontaneous mutation frequency test plates were determined. The inoculum size was calculated as CFU inoculated per plate. The spontaneous mutation frequency was calculated using the counts from duplicate spontaneous mutation assay test plates as follows:
If there were no colonies on the antibiotic selection plates, the spontaneous mutation frequency was reported as less than the frequency observed with one colony to indicate that the spontaneous mutation frequency was less than the limit of detection (one CFU). […] The mutation prevention concentration (MPC) was reported as the lowest concentration for which no mutants were selected.

[2] = E. coli ATCC 25922, ceftriaxone selection 8X MIC, 0.5 μg/mL
[3] = E. coli MMX 1312, ceftriaxone selection 4X MIC, 16 μg/mL
[4] = E. coli MMX 1312, ceftriaxone selection 8X MIC, 32 μg/mL
[5] = mutant prevention concentration
[6] = ceftriaxone selection 4X MIC, 16 μg/mL
[7] = ceftriaxone selection 8X MIC, 32 μg/mL
[8] = E. coli ATCC 25922, selection 4X MIC, 0.06 μg/mL
[9] = E. coli ATCC 35218, selection 4X MIC, 0.06 μg/mL
[10] = E. coli MMX 1312, selection 4X MIC, 0.06 μg/mL, TNTC = too numerous to count
[11] = E. coli ATCC 25922, rifaximin selection 4X MIC, 32 μg/mL
[12] = E. coli ATCC 25922, rifaximin selection 8X MIC, 64 μg/mL
[13] = E. coli ATCC 35218, rifaximin selection 4X MIC, 32 μg/mL, estimated by counting a quarter of the plate
[14] = E. coli ATCC 35218, rifaximin selection 8X MIC, 64 μg/mL, estimated by counting a quarter of the plate
[15] = E. coli MMX 1312, rifaximin selection 4X MIC, 16 μg/mL
[16] = E. coli MMX 1312, rifaximin selection 8X MIC, 32 μg/mL
[17] = rifaximin selection 4X MIC, 0.5 μg/mL
[18] = rifaximin selection 8X MIC, 1 μg/mL

CO/N=C(\C(=O)N[C@@H]1C(=O)N2C(C(=O)O)=C(CSc3nc(=O)c(=O)[nH]n3C)CS[C@H]12)c1csc(N)n1 [ceftriaxone]
Average Count (Escherichia coli; [2]): 0 CFU
Count 1 (Escherichia coli; [2]): 0 CFU
Count 2 (Escherichia coli; [2]): 0 CFU
Spontaneous Mutation Frequency (Escherichia coli; [2]): ≤7.41 × 10^−9
MPC (Escherichia coli; E. coli ATCC 25922, mutant prevention concentration): 0.25 µg/mL
MPC (Escherichia coli; E. coli ATCC 35218, mutant prevention concentration): 0.12 µg/mL
Average Count (Escherichia coli; [3]): TNTC
Count 1 (Escherichia coli; [3]): TNTC
Count 2 (Escherichia coli; [3]): TNTC
Average Count (Escherichia coli; [4]): TNTC
Count 1 (Escherichia coli; [4]): TNTC
Count 2 (Escherichia coli; [4]): TNTC
MPC (S. pyogenes; [5]): 0.12 µg/mL
Average Count (B. vulgatus; [6]): TNTC
Count 1 (B. vulgatus; [6]): TNTC
Count 2 (B. vulgatus; [6]): TNTC
Spontaneous Mutation Frequency (B. vulgatus; ceftriaxone selection 4X MIC, 16 μg/mL, based on estimated count of >500 average CFU): >8.69 × 10^−8
Average Count (B. vulgatus; [7]): 0 CFU
Count 1 (B. vulgatus; [7]): 0 CFU
Count 2 (B. vulgatus; [7]): 0 CFU
Spontaneous Mutation Frequency (B. vulgatus; [7]): ≤1.74 × 10^−10
MPC (B. vulgatus; [5]): 32 µg/mL
Average Count (S. pneumonia; ceftriaxone selection 8X MIC): 0 CFU
Count 1 (S. pneumonia; ceftriaxone selection 8X MIC): 0 CFU
Count 2 (S. pneumonia; ceftriaxone selection 8X MIC): 0 CFU
Spontaneous Mutation Frequency (S. pneumonia; ceftriaxone selection 8X MIC): ≤9.52 × 10^−10
MPC (S. pneumonia; [5]): 0.25 µg/mL
mutation rate [1]: indeterminate
Spontaneous Mutation Frequency [1]: ≤ 7.41×10^−9

C[C@@H](O)[C@H]1C(=O)N2C(C(=O)O)=C(S[C@@H]3CN[C@H](C(=O)N(C)C)C3)[C@H](C)[C@H]12 [meropenem]
Average Count (Escherichia coli): 0 CFU
Count 1 (Escherichia coli): 0 CFU
Count 2 (Escherichia coli): 0 CFU
MPC (Escherichia coli; E. coli ATCC 25922): 0.06 µg/mL
Average Count (Escherichia coli; [8]): 0 CFU
Count 1 (Escherichia coli; [8]): 0 CFU
Count 2 (Escherichia coli; [8]): 0 CFU
Spontaneous Mutation Frequency (Escherichia coli; [8]): ≤7.41 × 10^−9
MPC (Escherichia coli; E. coli ATCC 35218): 0.06 µg/mL
Average Count (Escherichia coli; [9]): 0 CFU
Count 1 (Escherichia coli; [9]): 0 CFU
Count 2 (Escherichia coli; [9]): 0 CFU
Spontaneous Mutation Frequency (Escherichia coli; [9]): ≤5.13 × 10^−9
Average Count (Escherichia coli; [10]): TNTC
Count 1 (Escherichia coli; [10]): TNTC
Count 2 (Escherichia coli; [10]): TNTC
MPC (S. pyogenes): 0.03 µg/mL
Average Count (S. pyogenes; selection 4X MIC, 0.03 μg/mL): 0 CFU
Count 1 (S. pyogenes; selection 4X MIC, 0.03 μg/mL): 0 CFU
Count 2 (S. pyogenes; selection 4X MIC, 0.03 μg/mL): 0 CFU
Spontaneous Mutation Frequency (S. pyogenes; selection 4X MIC, 0.03 μg/mL): ≤1.81 × 10^−10
Average Count (S. pyogenes; selection 8X MIC, 0.06 μg/mL): 0 CFU
Count 1 (S. pyogenes; selection 8X MIC, 0.06 μg/mL): 0 CFU
Count 2 (S. pyogenes; selection 8X MIC, 0.06 μg/mL): 0 CFU
Spontaneous Mutation Frequency (S. pyogenes; selection 8X MIC, 0.06 μg/mL): ≤1.81 × 10^−10
MPC (B. vulgatus): 0.5 µg/mL
Average Count (B. vulgatus; selection 4X MIC, 0.5 μg/mL): 0 CFU
Count 1 (B. vulgatus; selection 4X MIC, 0.5 μg/mL): 0 CFU
Count 2 (B. vulgatus; selection 4X MIC, 0.5 μg/mL): 0 CFU
Spontaneous Mutation Frequency (B. vulgatus; selection 4X MIC, 0.5 μg/mL): ≤1.73 × 10^−10
Average Count (B. vulgatus; selection 8X MIC, 1 μg/mL): 0 CFU
Count 1 (B. vulgatus; selection 8X MIC, 1 μg/mL): 0 CFU
Count 2 (B. vulgatus; selection 8X MIC, 1 μg/mL): 0 CFU
Spontaneous Mutation Frequency (B. vulgatus; selection 8X MIC, 1 μg/mL): ≤1.73 × 10^−10
MPC (S. pneumonia): 0.25 µg/mL
Average Count (S. pneumonia; selection 8X MIC): 0 CFU
Count 1 (S. pneumonia; selection 8X MIC): 0 CFU
Count 2 (S. pneumonia; selection 8X MIC): 0 CFU
Spontaneous Mutation Frequency (S. pneumonia; selection 8X MIC): ≤9.52 × 10^−10
colonies on selection plates [1]: too numerous to count
mutation rate [1]: indeterminate
colonies on selection plates ([1]; listed as Meropenem): only E. coli MMX 1312 demonstrated growth
Spontaneous Mutation Frequency [1]: ≤ 7.41×10^−9

CO[C@H]1/C=C/O[C@@]2(C)Oc3c(C)c(O)c4c(O)c(c5c(nc6cc(C)ccn65)c4c3C2=O)NC(=O)/C(C)=C\C=C\[C@H](C)[C@H](O)[C@@H](C)[C@@H](O)[C@@H](C)[C@H](OC(C)=O)[C@@H]1C [rifaximin]
MFC (Escherichia coli; E. coli ATCC 25922): >64 µg/mL
Average Count (Escherichia coli; [11]): TNTC
Count 1 (Escherichia coli; [11]): TNTC
Count 2 (Escherichia coli; [11]): TNTC
Spontaneous Mutation Frequency (Escherichia coli; E. coli ATCC 25922, rifaximin selection 4X MIC, 32 μg/mL, based on estimated count of >500 average CFU): >2.24 × 10^−8
Average Count (Escherichia coli; [12]): TNTC
Count 1 (Escherichia coli; [12]): TNTC
Count 2 (Escherichia coli; [12]): TNTC
Spontaneous Mutation Frequency (Escherichia coli; E. coli ATCC 25922, rifaximin selection 8X MIC, 64 μg/mL, based on estimated count of >500 average CFU): >2.24 × 10^−8
MFC (Escherichia coli; E. coli ATCC 35218): >64 µg/mL
Spontaneous Mutation Frequency (Escherichia coli; E. coli ATCC 35218, rifaximin selection 4X MIC, 32 μg/mL): 2.37 × 10^−8
Average Count (Escherichia coli; [13]): 688^2 CFU
Count 2 (Escherichia coli; [13]): 600^1 CFU
Spontaneous Mutation Frequency (Escherichia coli; E. coli ATCC 35218, rifaximin selection 8X MIC, 64 μg/mL): 1.15 × 10^−8
Average Count (Escherichia coli; [14]): 332^1 CFU
Count 1 (Escherichia coli; [14]): 360^1 CFU
Count 2 (Escherichia coli; [14]): 304^1 CFU
MFC (Escherichia coli; E. coli MMX 1312): >32 µg/mL
Average Count (Escherichia coli; [15]): TNTC
Count 1 (Escherichia coli; [15]): TNTC
Count 2 (Escherichia coli; [15]): TNTC
Spontaneous Mutation Frequency (Escherichia coli; E. coli MMX 1312, rifaximin selection 4X MIC, 16 μg/mL, based on estimated count of >500 average CFU): >2.06 × 10^−8
Average Count (Escherichia coli; [16]): TNTC
Count 1 (Escherichia coli; [16]): TNTC
Count 2 (Escherichia coli; [16]): TNTC
Spontaneous Mutation Frequency (Escherichia coli; E. coli MMX 1312, rifaximin selection 8X MIC, 32 μg/mL, based on estimated count of >500 average CFU): >2.06 × 10^−8
MFC (S. pyogenes): >1 µg/mL
Average Count (S. pyogenes; [17]): 83 CFU
Count 1 (S. pyogenes; [17]): 78 CFU
Count 2 (S. pyogenes; [17]): 87 CFU
Spontaneous Mutation Frequency (S. pyogenes; [17]): 1.51 × 10^−8
Average Count (S. pyogenes; [18]): 84 CFU
Count 1 (S. pyogenes; [18]): 78 CFU
Count 2 (S. pyogenes; [18]): 89 CFU
Spontaneous Mutation Frequency (S. pyogenes; [18]): 1.53 × 10^−8
MFC (B. vulgatus): >1 µg/mL
Average Count (B. vulgatus; [17]): 5 CFU
Count 1 (B. vulgatus; [17]): 6 CFU
Count 2 (B. vulgatus; [17]): 4 CFU
Spontaneous Mutation Frequency (B. vulgatus; [17]): 8.70 × 10^−10
Average Count (B. vulgatus; [18]): 4 CFU
Count 1 (B. vulgatus; [18]): 2 CFU
Count 2 (B. vulgatus; [18]): 5 CFU
Spontaneous Mutation Frequency (B. vulgatus; [18]): 6.96 × 10^−10
MFC (S. pneumonia): >0.25 µg/mL
Spontaneous Mutation Frequency [1]: > 2.37×10^−8
Spontaneous Mutation Frequency ([1]; listed as rifampin): ~10^−8
